{"source": "paper PMC10295897", "about": "“A Novel MDM2-Binding Chalcone Induces Apoptosis of Oral Squamous Cell Carcinoma” (Biomedicines, 2023)", "key": {"SCC9 cells": {"tested_on": "SCC9 cells", "experiment": "MTT cell viability assay, SCC9 oral cancer cells", "assay_type": "cell-based, human", "details": "for pIC50: Homo sapiens, SCC-9, 48 h, MTT", "procedure": "Human SCC-4, SCC-9, and SCC-25 cells derived from a human oral tongue SCC (squamous cell carcinoma) were obtained from the ATCC (CRL-1624, CRL-1629, and CRL-1628, respectively) and maintained in 1:1 DMEM/F12 (Dulbecco’s modified Eagle medium and Ham’s F12 medium; Gibco (Thermo Fisher, Waltham, MA, USA)) supplemented with 10% (v/v) FBS (fetal bovine serum; Invitrogen, Thermo Fisher, Waltham, MA, USA) and 400 ng/mL hydrocortisone (Sigma-Aldrich Co., St. Louis, MO, USA). Primary normal human gingival fibroblasts were obtained from the ATCC (PCS-201-018; HGF) and maintained in DMEM supplemented with 10% (v/v) FBS and were used in a maximum of six passages. The cells were grown in a humidified environment containing 5% CO2 at 37 °C. For all biological experiments, the compounds and control nutlin 3a were solubilized in 100% DMSO (all Sigma-Aldrich) to a final concentration of 10 mM. Carboplatin stock was prepared in water (Fauldcarbo®; LibbsFarmacêutica, São Paulo, SP, Brazil) and was used as a standard anticancer compound.\n(§1) The viability of SCC cell lines, HT-29, HCT-116, HEP2G and primary human fibroblast cells was evaluated using the MTT assay as in [26]. Briefly, the cells were grown in duplicates in 96-well plates (5 × 10^3 cells/well) until confluence. Then, the medium was removed, fresh medium was added, and the cells were returned to the incubator in the presence of different compounds. DMSO at the same concentrations was used as a 100% cell viability control. After 48 h, the cells were incubated with 5 mg/mL MTT reagent (3-(4,5-dimethyl-2-thiazolyl)-2,5-diphenyl-2-H-tetrazolium bromide) (Sigma-Aldrich Co., St. Louis, MO, USA) for 3.5 h. After that, formazan crystals were dissolved in MTT solvent solution (DMSO/methanol 1:1 v/v), and the absorbance at 560 nm was evaluated using an EPOCH microplate spectrophotometer (BioTek Instruments, Winooski, VT, USA) with the background absorbance at 670 nm subtracted. Each of the six compounds was tested at six or seven different concentrations, ranging from 0.3 µM to 200 µM in cancer cell lines (SCC-4, SCC-9 and SCC-25) and 0.3 µM to 200 µM in primary normal human gingival fibroblasts. Controls (carboplatin, nutlin 3a) were tested at six or seven different concentrations ranging from 0.05 µM to 1000 µM in cancer cells and normal cells, depending on the compound.\nThe data are presented as means ± SD. IC values for the MTT assays were obtained by nonlinear regression using the […] 5.0 program (Intuitive Software for Science, San Diego, CA, USA) from at least three independent experiments. A dose–response (inhibitor) vs. response curve using the least squares method was used to determine the IC50, SD, and R^2 of the data. The selectivity index was calculated as SI = IC50 of the compound in normal oral fibroblast cells/IC50 of the same compound for each cancer cell line (SCC-4, SCC-9, SCC-25, HCT-116, HT29 and HEP2G), and the mean was calculated when indicated.\nInitially, the six chalcones (1a–f) were submitted to the MTT assay to evaluate their cytotoxicity. The assay was performed using the oral cancer cell line SCC9, and the results were analyzed by a non-linear regression curve to determine the value of the half maximal inhibitory concentration (IC50). As controls, known chemotherapeutic agents were used, namely carboplatin, routinely used in the treatment of oral cancer, and doxorubicin, widely used for other types of cancers."}, "HCT-116 (colon cancer)": {"tested_on": "HCT-116 (colon cancer)", "experiment": "MTT cell viability assay, HCT-116", "assay_type": "cell-based", "procedure": "as §1, with “Each of the six compounds was tested at six or seven different concentrations, ranging from 0.3 µM to 200 µM in cancer cell lines (SCC-4, SCC-9 and SCC-25) and 0.3 µM to 200 µM in primary normal human gingival fibroblasts. Controls (carboplatin, nutlin 3a) were tested at six or seven different concentrations ranging from 0.05 µM to 1000 µM in cancer cells and normal cells, depending on the compound.” left out\nThe data are presented as means ± SD. […] The selectivity index was calculated as SI = IC50 of the compound in normal oral fibroblast cells/IC50 of the same compound for each cancer cell line (SCC-4, SCC-9, SCC-25, HCT-116, HT29 and HEP2G), and the mean was calculated when indicated."}}, "note": "pIC50: −log10 of the molar value. Where two headings read alike, the source gives them in different places."}
{"smiles": "Cc1cccc(C)c1-n1cc(/C=C/C(=O)c2ccccc2N)nn1", "note": "[1f, (E)-1-(2-Aminophenyl)-3-(1-(2,6-dimethylphenyl)-1H-1,2,3-triazol-4-yl)prop-2-en-1-one]", "values": [{"measurement": "pIC50", "setting": "SCC9 cells; 48 h, read-out: SCC9 IC50", "value": 5.41}, {"measurement": "pIC50", "setting": "SCC9 cells; SCC9, 48 h, read-out: IC50", "value": 5.41}, {"measurement": "SCC9 S.I.", "setting": "SCC9 cells; selective index = IC50 HGF / IC50 SCC9", "value": 7.63}, {"measurement": "pIC50", "setting": "HCT-116 (colon cancer); Homo sapiens, HCT-116, 48 h, MTT", "value": 5.40}, {"measurement": "HCT-116 S.I.", "setting": "HCT-116 (colon cancer); IC50 HGF / IC50 HCT-116", "value": 7.41}]}
